Broadly, the AUC(0-t) is the area under the concentration-time curve up to a stated or last time point. Higher therefore signals high exposure. What is called AUC(0-inf) is total exposure, with the tail of the curve extrapolated. A word on the Cmax: it is the peak of the concentration-time curve. A word on the MRT: it is the average time that molecules of a dose stay in the body. The Tmax is the time at which the peak concentration occurs. A word on the half-life: it is the time in which the quantity being followed falls by half.

The nature of this data set: Pharmacokinetic study in sham and myocardial ischemia model rats after a single oral dose of QSKL (UHPLC-psMS/MS of plasma, non-compartmental analysis). As to conditions: for AUC(0-inf): AUC0–∞.
[1] abbreviates: QSKL-treated plasma samples, sham and model rats, single oral dose 8.0 g/kg.
The mark [2] stands for this setting: male, Sprague-Dawley, rat, plasma, po, 8 g/kg, AUC0–t, model group (MG, myocardial ischemia) rats, oral administration of QSKL, plasma, mean ± SD, n = 6.
The mark [3] stands for this setting: male, Sprague-Dawley, rat, plasma, po, 8 g/kg, AUC0–t, sham group (SG) rats, oral administration of QSKL, plasma, mean ± SD, n = 6.
Where [4] appears, read: male, Sprague-Dawley, rat, plasma, po, 8 g/kg, model group (MG, myocardial ischemia) rats, oral administration of QSKL, plasma, mean ± SD, n = 6.
Setting [5] is: male, Sprague-Dawley, rat, plasma, po, 8 g/kg, sham group (SG) rats, oral administration of QSKL, plasma, mean ± SD, n = 6.
Setting [6] is: male, Sprague-Dawley, rat, plasma, po, 8 g/kg, Cmax, model group (MG, myocardial ischemia) rats, oral administration of QSKL, plasma, mean ± SD, n = 6.
Where [7] appears, read: male, Sprague-Dawley, rat, plasma, po, 8 g/kg, Cmax, sham group (SG) rats, oral administration of QSKL, plasma, mean ± SD, n = 6.
Where [8] appears, read: male, Sprague-Dawley, rat, plasma, po, 8 g/kg, t1/2, model group (MG, myocardial ischemia) rats, oral administration of QSKL, plasma, mean ± SD, n = 6.
Where [9] appears, read: male, Sprague-Dawley, rat, plasma, po, 8 g/kg, t1/2, sham group (SG) rats, oral administration of QSKL, plasma, mean ± SD, n = 6.
The mark [10] stands for this setting: male, Sprague-Dawley, rat, plasma, po, 8 g/kg, AUC0→t, model (myocardial ischemia, LAD ligation) rats, single oral dose of 8.0 g/kg QSKL, mean ± SD, n = 6.
The mark [11] stands for this setting: male, Sprague-Dawley, rat, plasma, po, 8 g/kg, AUC0→t, sham rats, single oral dose of 8.0 g/kg QSKL, mean ± SD, n = 6.
The mark [12] stands for this setting: male, Sprague-Dawley, rat, plasma, po, 8 g/kg, rats, after oral dosing QSKL 8.0 g/kg.
The mark [13] stands for this setting: rats, after oral dosing QSKL 8.0 g/kg.

Protocol: Twelve male Spargue-Dawley rats (200 ± 20 g) were supplied by Vital River Laboratory Animal Technology Co. Ltd. (Beijing, China). […] The rats were acclimated under a humidity (50%) controlled room at 22–25 °C with a 12 h light-dark cycle, and standard diet and water were provided ad libitum for one week.
Afterwards, all rats were randomly divided into two groups, namely sham and model groups. The myocardial ischemia model was simulated by left anterior descending (LAD) coronary artery ligation [12], whilst the rats belonging to the sham group received the similar surgery, however no actual ligation in LAD. All animals were fasted overnight with free access to water prior to oral dosing. Aliquots (250 μL) of blood were sampled at 0 (pre-dose), 0.08, 0.25, 0.5, 0.75, 1, 1.5, 2, 4, 6, 8, 12, and 24 h from venous around eye socket into heparinized tubes after a single oral dosing of 8.0 g/kg of QSKL and the collected blood samples were immediately subjected for 4000 rpm centrifugation for 10 min at 4 °C to harvest the plasma samples. Each 100 μL aliquot of plasma sample was transferred into another Eppendorf tube and stored at −80 °C till use.
When analysis, 300 μL of internal standards (200 ng/mL for either internal standard) fortified ACN, corresponding to three volumes of plasma, was spiked into each thawed plasma sample and mixed thoroughly. Then, the resulting samples were processed as those calibration samples.
Individual animal plasma concentrations versus time dataset were subjected to a non-compartmental pharmacokinetic analysis using WinNonlin software (ver. 6.4, Pharsight Corp., Sunnyvale, CA, USA). The pharmacokinetic parameters of each analyte including the maximum plasma concentration (Cmax), the time at which Cmax was achieved (Tmax), the terminal elimination half-life (t1/2), and the area under the plasma concentration versus time curve (AUC0→t along with AUC0→∞) were calculated. Moreover, Lz corresponding to the ratio of the dosage and AUC0→∞, as well as mean residence time (MRT) that was defined as the ratio of the area under the first moment curve from time 0 to infinity (AUMC0→∞/AUC0→∞) was also calculated. All results are expressed as mean ± SD. Comparisons regarding the pharmacokinetic parameters were carried out between sham and model groups using Student’s t-test, and p values less than 0.05 were considered to be significant.

Take `CCN1C[C@]2(COC)[C@H](O)C[C@H](OC)[C@@]34[C@@H]5C[C@@]6(O)[C@H](OC(=O)c7ccccc7)[C@@H]5[C@@](OC(C)=O)([C@@H]([C@H](OC)[C@H]23)[C@@H]14)[C@@H](O)[C@@H]6OC` [aconitine]: the “distribution in rat plasma (quantifiable or not)” value under setting [1] is “unquantifiable in most QSKL-treated samples”.
Turning to `COc1ccc(-c2coc3cc(O)ccc3c2=O)cc1O` [calycosin], the “distribution in rat plasma (quantifiable or not)” value under setting [1] was “quantifiable in most samples”. Moreover, the area under the curve AUC(0-t) was determined as 0.89 ± 0.284 ng·h/mL under setting [2] and 1.03 ± 0.181 ng·h/mL under setting [3]. The same compound registered an AUC(0-inf) under setting [4] of 1.04 ± 0.268 ng·h/mL and an AUC(0-inf) under setting [5] of 3.09 ± 1.95 ng·h/mL. In addition, the Cmax was 0.347 ± 0.197 ng/mL under setting [6] and 0.3 ± 0.244 ng/mL under setting [7]. In addition, the MRT was determined as 15 ± 4.54 h under setting [4] and 55.9 ± 34.6 h under setting [5]. In addition, the time to peak (Tmax) runs as follows: under setting [4], 0.28 ± 0.24 h; under setting [5], 0.33 ± 0.29 h. The half-life is, setting by setting: under setting [8], 9.27 ± 3.21 h; under setting [9], 38.2 ± 24.5 h.
As to `COc1ccc(-c2coc3cc(O)ccc3c2=O)cc1` [formononetin], the “distribution in rat plasma (quantifiable or not)” value under setting [1] was “quantifiable in most samples”. The AUC(0-t) is 1.2 ± 0.482 ng·h/mL under setting [2] and 0.966 ± 0.351 ng·h/mL under setting [3]. Also, the AUC(0-inf) under setting [4] was 1.32 ± 0.472 ng·h/mL and the AUC(0-inf) under setting [5] came to 1.22 ± 0.609 ng·h/mL. Besides, the peak level under setting [6] (Cmax) was 0.47 ± 0.291 ng/mL and the Cmax under setting [7] amounted to 0.243 ± 0.127 ng/mL. For the same compound, the MRT reads like this: under setting [4], 5.47 ± 2.56 h; under setting [5], 7 ± 2.97 h. Besides, the Tmax by setting is: under setting [4], 0.51 ± 0.46 h; under setting [5], 0.61 ± 0.53 h. Moreover, the half-life was 3.81 ± 1.89 h under setting [8] and 4.7 ± 2.32 h under setting [9].
Turning to `CC1(C)[C@@H](O)CC[C@]2(C)[C@H]3C(=O)C=C4[C@@H]5C[C@@](C)(C(=O)O)CC[C@]5(C)CC[C@@]4(C)[C@]3(C)CC[C@@H]12` [glycyrrhetic acid], the AUC(0-t) turned out to be 5040 ± 1860 ng·h/mL under setting [2], 3200 ± 298 ng·h/mL under setting [3], 5040 ± 1860 ng·h/mL under setting [10] and 3200 ± 298 ng·h/mL under setting [11]. This compound returned an AUC(0-inf) under setting [4] of 14500 ± 5750 ng·h/mL. In addition, the Cmax was 230 ± 57.1 ng/mL under setting [7]; 230 ± 57.1 ng/mL (male, Sprague-Dawley, rat, plasma, po, 8 g/kg, Cmax, sham rats, single oral dose of 8.0 g/kg QSKL, mean ± SD, n = 6); 376 ± 196 ng/mL (model (myocardial ischemia, LAD ligation) rats, single oral dose of 8.0 g/kg QSKL, mean ± SD, n = 6); 376 ± 196 ng/mL (model group (MG, myocardial ischemia) rats, oral administration of QSKL, plasma, mean ± SD, n = 6). For the same compound, the MRT under setting [4] came to 41.9 ± 21.5 h. Also, the Tmax was 13.3 ± 8.55 h under setting [4], greater than 12 h under setting [12] and 14 ± 4.9 h under setting [5]. The compound also gave a half-life under setting [8] of 26.3 ± 15.6 h. For the same compound, the “shape of plasma concentration-time profile” value (from here on “shape”) under setting [13] is recorded as “Multiple-peak profiles”.
In the case of `CC1(C)[C@@H](O[C@H]2O[C@H](C(=O)O)[C@@H](O)[C@H](O)[C@H]2O[C@@H]2O[C@H](C(=O)O)[C@@H](O)[C@H](O)[C@H]2O)CC[C@]2(C)[C@H]3C(=O)C=C4[C@@H]5C[C@@](C)(C(=O)O)CC[C@]5(C)CC[C@@]4(C)[C@]3(C)CC[C@@H]12` [glycyrrhizic acid], under setting [1], the “distribution in rat plasma (quantifiable or not)” value is recorded as “quantifiable in most samples”. Besides, the area under the curve AUC(0-t) was 72.8 ± 27.8 ng·h/mL under setting [2], 37.9 ± 7.11 ng·h/mL under setting [3], 72.8 ± 27.8 ng·h/mL under setting [10] and 37.9 ± 7.11 ng·h/mL under setting [11]. The AUC(0-inf) is, setting by setting: under setting [4], 170 ± 69.1 ng·h/mL; under setting [5], 130 ± 69.1 ng·h/mL. Besides, the Cmax by setting is: under setting [6], 8.87 ± 5.97 ng/mL; under setting [7], 3.34 ± 1.12 ng/mL. Further, the MRT amounted to 40.2 ± 21.7 h under setting [4] and 63.7 ± 34.4 h under setting [5]. Under setting [5], the Tmax stood at 1.46 ± 1.35 h. This compound also gave a half-life under setting [8] of 27.8 ± 14.2 h and a half-life under setting [9] of 43.2 ± 25.4 h. For the same compound, the “shape” value under setting [13] is listed as “Multiple-peak profiles”.
Under setting [2], `C[C@]1(OC(=O)/C=C/c2ccccc2)C[C@@H](O)[C@]2(O)C=CO[C@@H](O[C@@H]3O[C@H](CO)[C@@H](O)[C@H](O)[C@H]3O)[C@@H]21` [harpagoside] gave an AUC(0-t) of 2.4 ± 2.04 ng·h/mL. Moreover, under setting [4], the AUC(0-inf) was 2.2 ± 1.77 ng·h/mL, the MRT came out at 18.7 ± 16.7 h and the Tmax was determined as 0.56 ± 0.38 h. The highest level (male, Sprague-Dawley, rat, plasma, po, 8 g/kg, Cmax, model (myocardial ischemia, LAD ligation) rats, single oral dose of 8.0 g/kg QSKL, mean ± SD, n = 6) (Cmax) was 1.02 ± 0.692 ng/mL. Under setting [6], this compound showed a Cmax of 1.02 ± 0.692 ng/mL. The half-life under setting [8] is 16.1 ± 11.3 h. Besides, where the note is “plasma of the model group, single oral dose 8.0 g/kg QSKL”, the “distribution in rat plasma (quantifiable or not)” value is given as “always quantifiable”. Besides, the “distribution in rat plasma (quantifiable or not)” value (samples from the sham group, single oral dose 8.0 g/kg QSKL) is “lower than its LOQ”.
Consider `C[C@@H]1O[C@@H](O[C@@H]2[C@@H](O)[C@H](OCCc3ccc(O)c(O)c3)O[C@H](COC(=O)/C=C/c3ccc(O)c(O)c3)[C@H]2O)[C@H](O)[C@H](O)[C@H]1O` [isoacteoside], for which the “distribution in rat plasma (quantifiable or not)” value under setting [1] was “unquantifiable in most QSKL-treated samples”.
As to `O=C(/C=C/c1ccc(O)cc1)c1ccc(O)cc1O` [isoliquiritigenin], the AUC(0-t) reads like this: under setting [2], 1.56 ± 0.668 ng·h/mL; under setting [3], 1.87 ± 1.21 ng·h/mL. Besides, the AUC(0-inf) was found to be 1.71 ± 0.74 ng·h/mL under setting [4] and 2.07 ± 1.31 ng·h/mL under setting [5]. For the same compound, the peak concentration (Cmax) was 0.401 ± 0.103 ng/mL under setting [6] and 0.389 ± 0.137 ng/mL under setting [7]. Also, the MRT reads like this: under setting [4], 8.14 ± 2.95 h; under setting [5], 7.85 ± 0.6 h. Further, the Tmax under setting [4] was 0.37 ± 0.28 h and the Tmax under setting [5] worked out at 0.15 ± 0.13 h. For the same compound, the half-life is, setting by setting: under setting [8], 4.69 ± 2.06 h; under setting [9], 4.37 ± 1.37 h. Besides, under setting [13], the “shape” value was “Multiple-peak profiles”.
With `C=CC(C)(C)c1cc(/C=C/C(=O)c2ccc(O)cc2)c(OC)cc1O` [licochalcone A], under setting [1], the “distribution in rat plasma (quantifiable or not)” value was “unquantifiable in most QSKL-treated samples”.
In the case of `COC(=O)C1=CO[C@@H](O[C@@H]2O[C@H](CO)[C@@H](O)[C@H](O)[C@H]2O)[C@@H]2[C@H](C)O[C@@H](O)C[C@H]12` [morroniside], under setting [1], the “distribution in rat plasma (quantifiable or not)” value was “quantifiable in most samples”. Further, the AUC(0-t) was determined as 19.5 ± 3.53 ng·h/mL under setting [2] and 16.5 ± 3.91 ng·h/mL under setting [3]. In addition, the AUC(0-inf) is 29.2 ± 4.1 ng·h/mL under setting [4] and 24.9 ± 2.95 ng·h/mL under setting [5]. Also, the Cmax is 4.21 ± 3.41 ng/mL under setting [6] and 2.04 ± 1.07 ng/mL under setting [7]. For the same compound, the MRT under setting [4] was 21.1 ± 8.23 h and the MRT under setting [5] was 25.1 ± 13.5 h. The Tmax by setting is: under setting [4], 0.46 ± 0.25 h; under setting [5], 0.37 ± 0.19 h. This compound showed a half-life under setting [8] of 14.2 ± 5.79 h and a half-life under setting [9] of 15.8 ± 9.38 h.
Consider `Cc1coc2c1C(=O)C(=O)c1c-2ccc2c1CCCC2(C)C` [tanshinone IIA], for which the “distribution in rat plasma (quantifiable or not)” value under setting [1] is “quantifiable in most samples”. The area under the curve AUC(0-t) came out at 4.28 ± 0.678 ng·h/mL under setting [2], 3.18 ± 0.664 ng·h/mL under setting [3], 4.28 ± 0.678 ng·h/mL under setting [10] and 3.18 ± 0.664 ng·h/mL under setting [11]. Besides, the AUC(0-inf) reads like this: under setting [4], 7.17 ± 3.08 ng·h/mL; under setting [5], 4.77 ± 1.45 ng·h/mL. In addition, the Cmax was 0.349 ± 0.089 ng/mL under setting [6] and 0.376 ± 0.15 ng/mL under setting [7]. In addition, the MRT reads like this: under setting [4], 26.4 ± 14.9 h; under setting [5], 20.9 ± 5.14 h. The Tmax is 8.71 ± 8.03 h under setting [4], 8 h under setting [12] and 0.67 ± 0.3 h under setting [5]. For the same compound, the half-life was 18 ± 10.8 h under setting [8] and 13.8 ± 4.05 h under setting [9].

The record behind these values is article PMC6150229, “Simultaneous Determination of Twenty-Five Compounds in Rat Plasma Using Ultra-High Performance Liquid Chromatography-Polarity Switching Tandem Mass Spectrometry and Its Application to a Pharmacokinetic Study” (Molecules : A Journal of Synthetic Chemistry and Natural …, 2017).
